Read-outs that look alike come from different tables or passages of the source.
How the values were obtained:
rats [1] = tested on: rats; set-up: method as in Baumann and Rothman [1996]; Elmore et al. [2018]; conditions: SC, dose-related increases, ref Baumann and Rothman [1996], Elmore et al. [2018]; cited from earlier work
rats [2] = tested on: rats; set-up: method as in Lucki et al. ([1984]); conditions: intraperitoneal (IP), ref Lucki et al. ([1984]); cited from earlier work
[3] = Plasma pharmacokinetics of DMT and DMT N-oxide after IN or SC DMT (LC-QQQ-MS, non-compartmental analysis); type: in vivo, male Sprague-Dawley rats; conditions: for AUC / Tmax / Cmax / half-life: male, Sprague-Dawley, rat, plasma DMT; for Cmax / half-life: plasma
Procedure: For the IN DMT experiments, blood samples (300 µL) were withdrawn via IV catheters immediately before (time zero) and at 5, 10, 20, 40, and 80 min after injection. For the SC DMT experiments, blood samples were withdrawn immediately before (time zero) and at 10, 20, 40, 80, and 160 min after injection. Samples were collected into 1 mL tuberculin syringes and transferred to 1.5 mL plastic tubes containing 5 µL of 1000 IU/mL heparin (Thomas Scientific) as an anticoagulant and 5 µL of 250 mM sodium metabisulfite as a preservative. Blood was centrifuged at 1000 g for 10 min at 4 °C. Plasma was decanted into cryovials and stored at − 80 °C until analysis. To maintain volume and osmotic homeostasis, rats received an equal volume of saline solution via the IV catheter after each blood withdrawal.
Samples were extracted using a basic solid phase extraction (SPE) procedure. Spiking solutions (final concentrations 0.1, 1.0 and 10 ng/µL) contained all analytes and were prepared by serial dilution in methanol from stock solutions. Calibration curves contained eight non-zero calibrators from 5 to 1000 ng/mL. Quality controls were assessed at 15, 60, 150, and 800 ng/mL. DMT-D4 (25 µL, 1.0 ng/µL) was utilized as the internal standard. Authentic rat plasma samples were stored at −80 °C prior to analysis.
Drug-free rat plasma was fortified with appropriate spiking solutions and aliquoted (150 µL) for extraction. Authentic rat plasma was assayed at 150 µL. Internal standard was added at a final concentration of 125 ng/mL. Samples were diluted with 1 mL phosphate buffer (0.1 M, pH 6) followed by centrifugation for 5 min at 4200 rpm, then extracted using Chromabond® SPE cartridges (200 mg, 3 mL)(Macherey-Nagel, Allentown, PA, USA). The columns were conditioned using methanol (2 mL), deionized water (2 mL), and phosphate buffer (0.1 M, pH 6, 2 mL). The buffered sample was added to the columns and impurities were removed using deionized water (1 mL), acetic acid (0.1 M, 1 mL), and methanol (1 mL). Analytes were eluted using 3 mL of dichloromethane: isopropanol: ammonia (78:20:2, v: v:v). The organic solvent was evaporated to dryness under nitrogen at 33 °C. Samples were reconstituted in 100 µL of initial mobile phase conditions (90 A:10B).

male Sprague-Dawley rats [4] = assay: Behavioral scoring: motor activity (summed motor scores); type: in vivo; conditions: IN or SC, 1, 3, 10 mg/kg; Dunnett's post hoc test
male Sprague-Dawley rats [5] = assay: Behavioral scoring: flat body posture (element of the 5-HT syndrome); type: in vivo
male Sprague-Dawley rats [6] = assay: Behavioral scoring: wet dog shakes (proxy for 5-HT2A activation); type: in vivo; conditions: SC, 1 and 3 mg/kg
male Sprague-Dawley rats [7] = assay: Core body temperature by SC temperature transponder
male and female rats = tested on: male and female rats; set-up: method as in Tylš et al. [2016]; conditions: SC, ref Tylš et al. [2016]; cited from earlier work
[8] = inhaled or intranasal, 1 mg/kg IN, mean ± SEM, n = 5 rats
[9] = inhaled or intranasal, 3 mg/kg IN, mean ± SEM, n = 5 rats
[10] = inhaled or intranasal, 10 mg/kg IN, mean ± SEM, n = 5 rats
[11] = 1 mg/kg SC, mean ± SEM, n = 5 rats
[12] = 3 mg/kg SC, mean ± SEM, n = 5 rats
[13] = 10 mg/kg SC, mean ± SEM, n = 5 rats

COc1cc(CCN)c(OC)cc1I [2 C-I, 2-(4-iodo-2,5-dimethoxyphenyl)ethanamine]
wet dog shakes (rats [1]): more than ten episodes per hour

COc1ccc2[nH]cc(CCN(C)C)c2c1 [5-MeO-DMT, 5-methoxy-N, N-dimethyltryptamine]
5-HT behavioral syndrome (rats [2]): produces the 5-HT behavioral syndrome

C[N+](C)([O-])CCc1c[nH]c2ccccc12 [DMT N-oxide]
plasma concentrations of DMT N-oxide by 80 min post-treatment ([3]; after all doses of IN DMT): either undetectable or very low

CN(C)CCc1c[nH]c2ccccc12 [DMT, N,N-dimethyltryptamine]
predicted AUC ([3]; 10 mg/kg IN, ~3.3-times the measured AUC at 3 mg/kg): 2950 ng·min/mL
plasma concentrations of DMT by 80 min post-treatment ([3]; after all doses of IN DMT): below the LOD, or nearly so
AUC [3, 8]: 6.08 ng·h/mL
Tmax [3, 8]: 5 min
AUC [3, 9]: 14.9 ng·h/mL
Tmax [3, 9]: 6 min
AUC [3, 10]: 93.8 ng·h/mL
Tmax [3, 10]: 7 min
Cmax ([3]; inhaled or intranasal, 1 mg/kg, 1 mg/kg IN, mean ± SEM, n = 5 rats, read-out: Cmax): 30.1 ± 7.6 ng/mL
half-life ([3]; inhaled or intranasal, 1 mg/kg, 1 mg/kg IN, mean ± SEM, n = 5 rats, read-out: t1/2): 12.9 ± 2.8 min
Cmax ([3]; inhaled or intranasal, 3 mg/kg, 3 mg/kg IN, mean ± SEM, n = 5 rats, read-out: Cmax): 55.6 ± 15.4 ng/mL
half-life ([3]; inhaled or intranasal, 3 mg/kg, 3 mg/kg IN, mean ± SEM, n = 5 rats, read-out: t1/2): 14.3 ± 1.9 min
Cmax ([3]; inhaled or intranasal, 10 mg/kg, 10 mg/kg IN, mean ± SEM, n = 5 rats, read-out: Cmax): 268 ± 50.7 ng/mL
half-life ([3]; inhaled or intranasal, 10 mg/kg, 10 mg/kg IN, mean ± SEM, n = 5 rats, read-out: t1/2): 11.9 ± 1.4 min
Cmax ([3]; other: IN (intranasal, infused into the nares), 3 mg/kg, low IN doses (1 and 3 mg/kg), read-out: maximal DMT concentrations (Cmax) after low IN doses): 30.2 to 55.6 ng/mL
half-life ([3]; other: IN (intranasal, infused into the nares), 10 mg/kg, IN route, across 1, 3 and 10 mg/kg, read-out: t1/2 range): 11.9 to 14.3 min
Cmax ([3]; sc, 1 mg/kg, 1 mg/kg SC, mean ± SEM, n = 5 rats, read-out: Cmax): 19.6 ± 2.2 ng/mL
half-life ([3]; sc, 1 mg/kg, 1 mg/kg SC, mean ± SEM, n = 5 rats, read-out: t1/2): 45.5 ± 9.5 min
Cmax ([3]; sc, 3 mg/kg, 3 mg/kg SC, mean ± SEM, n = 5 rats, read-out: Cmax): 35.8 ± 2.4 ng/mL
half-life ([3]; sc, 3 mg/kg, 3 mg/kg SC, mean ± SEM, n = 5 rats, read-out: t1/2): 91.7 ± 26.4 min
Cmax ([3]; sc, 10 mg/kg, 10 mg/kg SC, mean ± SEM, n = 5 rats, read-out: Cmax): 81.6 ± 11.1 ng/mL
half-life ([3]; sc, 10 mg/kg, 10 mg/kg SC, mean ± SEM, n = 5 rats, read-out: t1/2): 123 ± 36.4 min
half-life ([3]; sc, 10 mg/kg, SC route, across 1, 3 and 10 mg/kg, read-out: t1/2 range): 45.5 to 123 min
AUC [3, 11]: 16.4 ng·h/mL
Tmax [3, 11]: 14 min
AUC [3, 12]: 47.7 ng·h/mL
Tmax [3, 12]: 22 min
AUC [3, 13]: 158 ng·h/mL
Tmax [3, 13]: 64 min
summed motor scores vs vehicle controls (male Sprague-Dawley rats [4]): no significant differences
flat body posture vs vehicle (male Sprague-Dawley rats [5]; IN, 3 and 10 mg/kg): increased above vehicle
flat body posture vs vehicle (male Sprague-Dawley rats [5]; SC, only at 10 mg/kg): increased
wet dog shakes vs vehicle (male Sprague-Dawley rats [6]): increased compared to vehicle
body temperature nadir (hypothermic effect) (male Sprague-Dawley rats [7]; 10 mg/kg IN, sustained throughout the sampling period (80 min)): 34.4 °C
body temperature nadir (hypothermic effect) (male Sprague-Dawley rats [7]; 10 mg/kg SC, subsided by end of sampling period (160 min)): 34.2 °C
body temperature vs saline controls (male Sprague-Dawley rats [7]; IN, all doses, by 20 min post-treatment): significantly reduced temperature

COc1cc(CC(C)N)c(OC)cc1I (centres unmarked) [DOI, 1-(4-iodo-2,5-dimethoxyphenyl)propan-2-amine]
wet dog shakes (rats [1]): more than ten episodes per hour

CN(C)CCc1c[nH]c2cccc(O)c12 [psilocin, 4-hydroxy-N, N-dimethyltryptamine]
flat body posture (male and female rats): causes flat body posture

— PMC12908707, “Pharmacodynamic effects and plasma pharmacokinetics of N, N-dimethyltryptamine after intranasal versus subcutaneous administration in male rats” (Psychopharmacology, 2025)
